± gives the expanded uncertainty stated by the source.
Assay: xn = mol fraction of the nth substance listed
Conditions: 100 kPa, Liquid; for speed of sound: Frequency=2 MHz, Linear variable-path acoustic interferometer; for mass density: Vibrating tube method

Cc1ccccc1O [2-methylphenol] + CCO
Conditions | mass density, 303.15 K [kg/m3] | mass density, 308.15 K [kg/m3] | mass density, 313.15 K [kg/m3] | mass density, 318.15 K [kg/m3] | speed of sound, 303.15 K [m/s] | speed of sound, 313.15 K [m/s]
x2 = 0 | 1037.02 ± 1.2 | 1032.58 ± 1.2 | 1028.19 ± 1.2 | 1023.82 ± 1.2 | 1488.1 ± 2.5 | 1453 ± 2.5
x2 = 0.1387 | 1015.95 ± 1.2 | 1011.54 ± 1.2 | 1007.18 ± 1.2 | 1002.83 ± 1.2 | 1435.4 ± 2.5 | 1401.2 ± 2.5
x2 = 0.2617 | 994.82 ± 1.2 | 990.39 ± 1.2 | 986.02 ± 1.2 | 981.62 ± 1.2 | 1391.2 ± 2.5 | 1355.4 ± 2.4
x2 = 0.3713 | 973.68 ± 1.2 | 969.21 ± 1.2 | 964.81 ± 1.2 | 960.38 ± 1.2 | 1351.2 ± 2.4 | 1314.6 ± 2.4
x2 = 0.4698 | 952.47 ± 1.2 | 947.97 ± 1.2 | 943.57 ± 1.2 | 939.1 ± 1.2 | 1314.2 ± 2.4 | 1277.9 ± 2.4
x2 = 0.5586 | 931.22 ± 1.2 | 926.73 ± 1.2 | 922.33 ± 1.2 | 917.85 ± 1.2 | 1280.2 ± 2.4 | 1245 ± 2.4
x2 = 0.6392 | 909.96 ± 1.2 | 905.45 ± 1.2 | 901.08 ± 1.2 | 896.59 ± 1.2 | 1249.3 ± 2.4 | 1215.3 ± 2.4
x2 = 0.7127 | 888.59 ± 1.2 | 884.08 ± 1.2 | 879.74 ± 1.2 | 875.23 ± 1.2 | 1221.5 ± 2.4 | 1188.6 ± 2.4
x2 = 0.7799 | 867.19 ± 1.2 | 862.71 ± 1.2 | 858.37 ± 1.2 | 853.88 ± 1.2 | 1196.9 ± 2.4 | 1164.8 ± 2.4
x2 = 0.8417 | 845.72 ± 1.2 | 841.26 ± 1.2 | 836.92 ± 1.2 | 832.43 ± 1.2 | 1175.2 ± 2.4 | 1143.6 ± 2.4
x2 = 0.8986 | 824.22 ± 1.2 | 819.77 ± 1.2 | 815.43 ± 1.2 | 810.91 ± 1.2 | 1156.5 ± 2.4 | 1124.8 ± 2.4
x2 = 0.951 | 802.69 ± 1.2 | 798.22 ± 1.2 | 793.89 ± 1.2 | 789.33 ± 1.2 | 1140.6 ± 2.4 | 1108.4 ± 2.4

Cc1ccc(O)cc1 [4-methylphenol] + CCO
Conditions | mass density, 303.15 K [kg/m3] | mass density, 308.15 K [kg/m3] | mass density, 313.15 K [kg/m3] | mass density, 318.15 K [kg/m3] | speed of sound, 303.15 K [m/s] | speed of sound, 313.15 K [m/s]
x2 = 0 | 1026.47 ± 1.2 | 1022.56 ± 1.2 | 1018.64 ± 1.2 | 1014.68 ± 1.2 | 1473 ± 2.5 | 1440.2 ± 2.5
x2 = 0.1392 | 1006.2 ± 1.2 | 1002.27 ± 1.2 | 998.32 ± 1.2 | 994.31 ± 1.2 | 1435.7 ± 2.5 | 1402.3 ± 2.5
x2 = 0.2624 | 985.93 ± 1.2 | 981.96 ± 1.2 | 977.97 ± 1.2 | 973.9 ± 1.2 | 1392.4 ± 2.5 | 1359.7 ± 2.5
x2 = 0.3722 | 965.59 ± 1.2 | 961.62 ± 1.2 | 957.61 ± 1.2 | 953.46 ± 1.2 | 1350.4 ± 2.5 | 1318.2 ± 2.5
x2 = 0.4707 | 945.23 ± 1.2 | 941.23 ± 1.2 | 937.2 ± 1.2 | 932.96 ± 1.2 | 1311.9 ± 2.5 | 1280 ± 2.4
x2 = 0.5595 | 924.86 ± 1.2 | 920.83 ± 1.2 | 916.75 ± 1.2 | 912.45 ± 1.2 | 1277.5 ± 2.4 | 1245.8 ± 2.4
x2 = 0.6401 | 904.44 ± 1.2 | 900.38 ± 1.2 | 896.25 ± 1.2 | 891.89 ± 1.2 | 1247 ± 2.4 | 1215.1 ± 2.4
x2 = 0.7134 | 883.97 ± 1.2 | 879.86 ± 1.2 | 875.69 ± 1.2 | 871.3 ± 1.2 | 1220.1 ± 2.4 | 1188 ± 2.4
x2 = 0.7805 | 863.47 ± 1.2 | 859.3 ± 1.2 | 855.09 ± 1.2 | 850.66 ± 1.2 | 1196.3 ± 2.4 | 1164 ± 2.4
x2 = 0.8421 | 842.93 ± 1.2 | 838.68 ± 1.2 | 834.45 ± 1.2 | 829.99 ± 1.2 | 1175.3 ± 2.4 | 1142.8 ± 2.4
x2 = 0.8989 | 822.33 ± 1.2 | 818.01 ± 1.2 | 813.74 ± 1.2 | 809.25 ± 1.2 | 1156.8 ± 2.4 | 1124.1 ± 2.4
x2 = 0.9514 | 801.71 ± 1.2 | 797.31 ± 1.2 | 793.01 ± 1.2 | 788.43 ± 1.2 | 1140.8 ± 2.4 | 1107.9 ± 2.4

Cc1cccc(O)c1 [3-methylphenol] + CCO
Conditions | mass density, 303.15 K [kg/m3] | mass density, 308.15 K [kg/m3] | mass density, 313.15 K [kg/m3] | mass density, 318.15 K [kg/m3] | speed of sound, 303.15 K [m/s] | speed of sound, 313.15 K [m/s]
x2 = 0 | 1025.71 ± 1.2 | 1021.7 ± 1.2 | 1017.69 ± 1.2 | 1013.65 ± 1.2 | 1466.1 ± 2.5 | 1436.1 ± 2.5
x2 = 0.14 | 1005.48 ± 1.2 | 1001.45 ± 1.2 | 997.42 ± 1.2 | 993.36 ± 1.2 | 1426.7 ± 2.5 | 1398.2 ± 2.5
x2 = 0.2637 | 985.23 ± 1.2 | 981.17 ± 1.2 | 977.1 ± 1.2 | 972.97 ± 1.2 | 1384.7 ± 2.5 | 1355 ± 2.5
x2 = 0.3738 | 964.94 ± 1.2 | 960.82 ± 1.2 | 956.72 ± 1.2 | 952.53 ± 1.2 | 1344.9 ± 2.4 | 1313.8 ± 2.4
x2 = 0.4724 | 944.63 ± 1.2 | 940.47 ± 1.2 | 936.35 ± 1.2 | 932.08 ± 1.2 | 1308.5 ± 2.4 | 1276.5 ± 2.4
x2 = 0.5612 | 924.32 ± 1.2 | 920.08 ± 1.2 | 915.95 ± 1.2 | 911.64 ± 1.2 | 1275.8 ± 2.4 | 1243.4 ± 2.4
x2 = 0.6417 | 903.96 ± 1.2 | 899.68 ± 1.2 | 895.51 ± 1.2 | 891.18 ± 1.2 | 1246.6 ± 2.4 | 1214 ± 2.4
x2 = 0.7149 | 883.56 ± 1.2 | 879.25 ± 1.2 | 875.06 ± 1.2 | 870.68 ± 1.2 | 1220.5 ± 2.4 | 1188 ± 2.4
x2 = 0.7817 | 863.15 ± 1.2 | 858.83 ± 1.2 | 854.61 ± 1.2 | 850.21 ± 1.2 | 1197.2 ± 2.4 | 1164.7 ± 2.4
x2 = 0.8431 | 842.67 ± 1.2 | 838.32 ± 1.2 | 834.07 ± 1.2 | 829.62 ± 1.2 | 1176.3 ± 2.4 | 1143.9 ± 2.4
x2 = 0.8995 | 822.2 ± 1.2 | 817.81 ± 1.2 | 813.53 ± 1.2 | 809.06 ± 1.2 | 1157.8 ± 2.4 | 1125.3 ± 2.4
x2 = 0.9517 | 801.66 ± 1.2 | 797.22 ± 1.2 | 792.9 ± 1.2 | 788.34 ± 1.2 | 1141.4 ± 2.4 | 1108.7 ± 2.4

— the NIST ThermoML archive (doi:10.1016/j.jct.2018.12.039)
